The series is described as follows: Human HepG2 cell viability assay in 384 well format. Also on record: dose 125 nL, time 70.5 hour; concentration not given beside the values. Format: toxicity, cell-based. To be noted: HepG2 cells, read-out: Inhibition.

Drawing on ChEMBL document CHEMBL3507680, “University of Dundee, Gates Library screen for HepG2 cell viability”, this text covers cytotoxicity for 101 compounds.

On to `O=C(Nc1ccc(Cl)cc1C(=O)NCCN1CCOCC1)c1ccco1`, for which the cytotoxicity at 70.5 h was -0.882%.
The same measure for `CC1CCCCN1C(=O)c1ccn(COc2ccc(F)cc2)n1` (stereo unspecified): -9.66%; for `O=C(NCCCN1CCOCC1)c1ccn(COc2ccc(Br)cc2)n1`: 12.3%; for `Cc1ccc(NC(=O)C(C)n2ccc(C(F)(F)F)n2)nc1` (stereo unspecified): 1.64%.
The result for `Cc1cnc(NC(=O)C(C)n2ccc(C(F)(F)F)n2)s1` (stereo unspecified) reads -5.09%.
The same measure for `CC(Oc1ccc2c(c1)OCO2)C(=O)Nc1ccon1` (stereo unspecified): -6.17%; for `COc1ccccc1N1CCN(C(=O)Cn2nc(C)c(Cl)c2C)CC1`: 11.3%; for `Cc1cc(N2CCC(Cc3ccccc3)CC2)ncn1`: -11.5%.
Consider `CCn1cc(Cl)c(C(=O)NCCCN(C)C)n1`, for which the cytotoxicity at 70.5 h is -7.78%.
In the case of `CCOCCCNC(=O)C(C)n1cc(Br)cn1` (stereo unspecified), the cytotoxicity at 70.5 h was 1.42%.
Take `CCN1CCN(C(=O)C(C)n2cc(Br)cn2)CC1` (stereo unspecified): the cytotoxicity at 70.5 h is -1.55%.
Turning to `CC(C(=O)N1CCN(c2ccccc2)CC1)n1cc(Br)cn1` (stereo unspecified), the cytotoxicity at 70.5 h was -2.65%.
The result for `O=C(COc1ccc2c(c1)CCC2)NCc1ccco1` reads 23.9%.
Regarding `CSc1[nH]nc(NC(=O)c2cccs2)c1C#N`, the cytotoxicity at 70.5 h was -10.4%.
The result for `CCN(Cc1nonc1C)C(=O)c1cc(C(F)(F)F)nn1C` reads -7.63%; that for `CC(Cn1cc(Br)cn1)C(=O)Nc1ccc(Br)cn1` (stereo unspecified), 3.47%.
Regarding `CC(Cn1cc(Br)cn1)C(=O)Nc1ccncc1` (stereo unspecified), the cytotoxicity at 70.5 h stood at 6.88%.
`Cc1cc(C(F)(F)F)nn1C(C)C(=O)Nc1ccc(Cl)cn1` (stereo unspecified): the cytotoxicity at 70.5 h was -6.74%.
In the case of `COc1ccc(C(C)NC(=O)c2nn(C)c(C)c2Br)cc1` (stereo unspecified), the cytotoxicity at 70.5 h was -2.4%.
The result for `CCn1cc(Br)c(C(=O)NCc2ccc(F)cc2)n1` reads 4.64%; that for `CCCn1nccc1C(=O)Nc1nc(C)c(C)s1`, 11.9%; that for `CCc1ccccc1NC(=O)CCc1cnn(C)c1`, -11.3%.
The result for `CCn1ccc(-c2nnc(SCC(=O)Nc3ccc(C)cc3)n2CC)n1` reads -13.9%.
Turning to `Cc1cc(C)n(C2=NC(NCCC(C)C)c3c(sc4c3CCCC4)N2)n1` (stereo unspecified), the cytotoxicity at 70.5 h came out at 1.07%.
For `COCCC(=O)Nc1cnn(COc2ccc(F)cc2Cl)c1`, the cytotoxicity at 70.5 h was 27.4%.
As for `O=C(COc1ccc2c(c1)OCO2)NCc1ccco1`, the cytotoxicity at 70.5 h is -5.95%.
The result for `CCCNCc1ncc(C)c(OC)c1C` reads -6.98%; that for `Cc1cc(=O)n2c3c(cc(S(=O)(=O)NC4CC4)cc13)CCC2`, 31.9%; that for `CCCN(C(=O)CS(=O)(=O)c1ccccc1)c1cccc(C)c1`, -5.44%.
The same measure for `Cn1cc(Br)c(C(=O)NCCn2cc(Br)cn2)n1`: 8.47%; for `COc1ccc(-c2cc(C(=O)N3N=C(C)CC3(O)C(F)(F)F)[nH]n2)cc1` (stereo unspecified): 12.4%; for `COc1cccc(-c2cc(C(=O)N3N=C(C)CC3(O)C(F)(F)F)[nH]n2)c1` (stereo unspecified): -16.8%.
The same measure for `O=C(c1ccnn1COc1ccc(Cl)cc1)N1CCOCC1`: -6.03%; for `CCn1cc(NC(=O)C(C)n2ncc(Cl)c2C)c(C(=O)NCC(C)C)n1` (stereo unspecified): -3.04%.
Regarding `Cc1c(Br)cnn1CCC(=O)N(C)Cc1c(Cl)cnn1C`, the cytotoxicity at 70.5 h worked out at 30.7%.
The result for `CS(=O)(=O)Nc1ccn(Cc2ccc(F)cc2Cl)n1` reads -12.3%; that for `CCS(=O)(=O)Nc1ccn(Cc2cccc(F)c2)n1`, -11.5%.
The result for `Cc1cc(C(F)(F)F)nn1CCCNC(=O)C1CCN(S(C)(=O)=O)CC1` reads -10.7%.
For `CCn1cc(S(=O)(=O)N2CCN(C(=O)c3cc(Br)cs3)CC2)c(C)n1`, the cytotoxicity at 70.5 h was found to be 21.7%.
The same measure for `CCn1ncc(-c2cc(C(F)F)nc3sc(C(N)=O)c(N)c23)c1C`: 9.78%; for `Cc1c(Br)c(C(F)(F)F)nn1C(C)C(=O)O` (stereo unspecified): -11.2%.
The same measure for `Cn1nc(C(=O)N2CCOCC2)cc1C(=O)Nc1ccc(Cl)cc1Cl`: -2.86%; for `COc1cc(NC(=O)NCC2CCCO2)cc(OC)c1OC` (stereo unspecified): -5.38%; for `Cc1cccc(N2CCCN=C2NC(=O)c2cccc(Cl)c2)c1`: -9.98%.
The same measure for `CCOc1ccc(N2CCCN=C2NC(=O)c2cccc(C)c2)cc1`: -6.22%; for `CN1CC(Oc2ccc(Cl)cc2)=NC(SCC(=O)Nc2ccccc2)=N1`: 7.43%.
For `CN1CC(Oc2ccc(Cl)cc2)=NC(SCC(=O)c2ccccc2)=N1`, the cytotoxicity at 70.5 h was determined as 14.8%.
With `CC(C)c1cc2c(s1)NC(c1ccccn1)NC2=O` (stereo unspecified), the cytotoxicity at 70.5 h is -3.28%.
The same measure for `OC1=C2C(=Nc3n[nH]c(O)c3C2c2ccco2)CCC1` (stereo unspecified): -9.2%; for `CCOc1ccc(C2C3=C(O)OCC3=Nc3nc(SC)nc(N)c32)cc1` (stereo unspecified): 9.83%.
Turning to `Cc1nn(C)c2c(N3CCN(C(=O)C4CCCCC4)CC3)ncnc12`, the cytotoxicity at 70.5 h is 14.6%.
The result for `Cc1nn(C)c2c(N3CCN(C(=O)C4CCCO4)CC3)ncnc12` (stereo unspecified) reads 1.72%.
With `CC(C)N1CCC(c2n[nH]cc2S(C)(=O)=O)CC1`, the cytotoxicity at 70.5 h was -10.2%.
The same measure for `CNC(=O)C1(C)CN(Cc2cn(C)c3ccc(F)cc23)CCO1` (stereo unspecified): -9.03%; for `Cc1ncsc1CN1CCOC(C)(C(N)=O)C1` (stereo unspecified): -1.13%; for `CC(=O)N1CCC(c2ccnc(Nc3cc(C(F)(F)F)ccn3)n2)C1` (stereo unspecified): 19.8%.
The same measure for `O=C(NCCc1ccccc1)C1CCN(C(=O)Cn2cncn2)C1` (stereo unspecified): -10.2%; for `CN(C)Cc1cc(C2CCCN(S(=O)(=O)c3cccc(Cl)c3)C2)nn1C` (stereo unspecified): -14.6%; for `O[C@H]1CN(Cc2c[nH]nc2-c2ccccc2)CC[C@@]12CCCO2`: 15.7%.
The same measure for `Cc1cc(Nc2cnccn2)nc(C2CCCN(CCO)C2)n1` (stereo unspecified): -10.3%; for `Nc1nccc(C2CCN(CC3CC3)C2)n1` (stereo unspecified): 17.6%; for `Cc1cc(-c2c[nH]nc2C2CCCCN2C(=O)c2ccccc2)on1` (stereo unspecified): -9.53%.
Consider `CCc1n[nH]c(C(=O)NCCn2nccc2C)c1C`, for which the cytotoxicity at 70.5 h was -5.81%.
The result for `O=C1CCC[C@]2(CN(S(=O)(=O)N3CCOCC3)C[C@H]2c2cccnc2)N1` reads -4.54%; that for `Nc1nccc(C2CCCN(CC3CC3)C2)n1` (stereo unspecified), -4.18%; that for `CCn1cc(-c2nccnc2C2CCCN(C(C)=O)C2)cn1` (stereo unspecified), -4.58%.
Take `Cc1cc(C)n(C2CCN(Cc3nc4ccccc4n3C)CC2)n1`: the cytotoxicity at 70.5 h came out at 1.81%.
For the compound `C[C@@H]1CN(c2nc(O)cc(Cc3ccccc3F)n2)C[C@H](C)O1`, the cytotoxicity at 70.5 h was found to be 19.5%.
The result for `O=C(NCc1ccccn1)c1cncc(C2CCCN2)n1` (stereo unspecified) reads 22.2%; that for `CCn1ccc(-c2cc(NCCCOc3cccc(C)c3)nc(C)n2)n1`, -6.25%; that for `CCCn1cc(C(=O)N2CCCC2(C)c2nc(C)cc(N)n2)cn1` (stereo unspecified), -1.03%.
The result for `c1ccc(N2CCN(Cc3cnc(C4CCCCO4)nc3)CC2)nc1` (stereo unspecified) reads -4.5%.
The same measure for `CCc1n[nH]c(C(=O)NCCn2ccc(C)n2)c1C`: 17.6%.
As to `CNc1ncc(CN(C)C2CCN(C(C)C)CC2)cn1`, the cytotoxicity at 70.5 h is -3.89%.
The same measure for `CCCC(=O)N1CCCC(c2ccccn2)C1` (stereo unspecified): -1.3%; for `Cn1cc(CN2CCOC(c3nccnc3-c3cccc(F)c3)C2)cn1` (stereo unspecified): 21.8%.
The same measure for `Nc1nccc(C2CCCN2CCc2ccccc2)n1` (stereo unspecified): -1.57%.
The result for `CCN(CC)S(=O)(=O)N1CC[C@H](c2ccccc2)[C@@H]2[C@H]1CCCCN2C` reads -0.108%; that for `COCC(=O)N1CCN(C)C(=O)C(Cc2ccc(-c3cccs3)cc2)C1` (stereo unspecified), -1.25%.
With `CC(C)C(=O)N1CCC(C)(c2cc[nH]n2)CC1`, the cytotoxicity at 70.5 h was -0.608%.
For the compound `Cc1nc2cc(C3CCCCN3C(=O)C3CC3)nn2c(O)c1C` (stereo unspecified), the cytotoxicity at 70.5 h is -2.34%.
Consider `Cc1ncsc1C(=O)N1CCCCC1c1cc2nc(C)c(C)c(O)n2n1` (stereo unspecified), for which the cytotoxicity at 70.5 h is -4.23%.
The same measure for `CN(C)CCN(C)C(=O)Cn1cccc2cc(-c3ccc(F)cc3)nc1-2`: 4.32%; for `CC1Cc2ccccc2N1C(=O)Cn1nc(-c2cccs2)ccc1=O` (stereo unspecified): -8.13%; for `Cc1cccc(CNC(Cc2ccsc2)c2nccs2)n1` (stereo unspecified): 0.0464%.
The result for `CC(=O)N1Cc2ccccc2OC2(CCN(C(=O)C3CCOC3)CC2)C1` (stereo unspecified) reads -1.13%; that for `Cc1cnc(-c2nc(O)c3c(n2)CN(C(=O)C2CC2)CC3)cn1`, -4.33%.
The result for `Cc1cnc(-c2nc(O)c3c(n2)CN(C(=O)C2CCCO2)CC3)cn1` (stereo unspecified) reads -1.18%.
For the compound `COc1ccc(F)cc1-c1ccccc1CC1(C(=O)O)CCOCC1`, the cytotoxicity at 70.5 h turned out to be 27.6%.
The result for `Nc1cc(-c2cccs2)nn(CC(=O)N2CCc3ccccc32)c1=O` reads -2.52%; that for `Clc1cccc(Cl)c1CN(CCCN1CCOCC1)Cc1cccnc1`, -11.4%.
The same measure for `O=C(Cc1cccc(O)c1)N1CCCC(O)(CN2CCOCC2)CC1` (stereo unspecified): 0.936%.
The same measure for `Cc1ccc(N(C)[C@@H]2CC[C@@H]3CN(C(=O)Cc4cccs4)C[C@@H]32)nn1`: -5.34%.
Turning to `Cn1cc(CN2CCCC(c3nccnc3-c3cccc(F)c3)C2)cn1` (stereo unspecified), the cytotoxicity at 70.5 h amounted to 16.1%.
The result for `Cc1c[nH]nc1C1CCN(C(=O)CC2CCCC2)C1` (stereo unspecified) reads -6.41%; that for `NC(=O)C1CNCCN1C(=O)COc1ccccc1` (stereo unspecified), -7.46%; that for `COc1cc2cc(C)c(SCCN3CCCCC3)nc2cc1OC`, 4.15%.
On to `CC(C)Oc1cccc(CNC(Cc2ccsc2)c2nccs2)c1` (stereo unspecified), for which the cytotoxicity at 70.5 h was -2.9%.
The result for `Cc1ccc(C2(CN3CCN(Cc4cnc(C)n4C)CC3)CC2)cc1` reads 32.9%.
`Cc1cc(N(C)C)nc(C2CCNC2)n1` (stereo unspecified): the cytotoxicity at 70.5 h was 45.3%.
On to `CCc1ncc(CN(C)C2CCN(C(C)C)CC2)cn1`, for which the cytotoxicity at 70.5 h was found to be 13.4%.
